US10457685B2, “[1,2,3]triazolo[4,5-D]pyrimidine derivatives with affinity for the type-2 cannabinoid receptor” (Hoffmann-La Roche Inc., priority 2016, dated 2019)

How the values were obtained:
[1] = molecular target: human CB2 receptor (CNR2) (Homo sapiens (Human), UniProt P34972); assay: Radioligand binding assay ([3H]-CP-55,940), membranes of HEK cells expressing human CNR2; settings: 2.6 nM [3H]-CP-55,940, HEK cell membranes, 1 h at 30° C.
Procedure: (§1) Radioligand Binding Assay
(§2) The affinity of the compounds of the invention for cannabinoid receptors was determined using recommended amounts of membrane preparations (PerkinElmer) of human embryonic kidney (HEK) cells expressing the human CNR1 or CNR2 receptors in conjunction with 1.5 or 2.6 nM [3H]-CP-55,940 (Perkin Elmer) as radioligand, respectively. Binding was performed in binding buffer (50 mM Tris, 5 mM MgCl2, 2.5 mM EDTA, and 0.5% (wt/vol) fatty acid free BSA, pH 7.4 for CB1 receptor and 50 mM Tris, 5 mM MgCl2, 2.5 mM EGTA, and 0.1% (wt/vol) fatty acid free BSA, pH 7.4 for CB2 receptor) in a total volume of 0.2 mL for 1 h at 30° C. shaking. The reaction was terminated by rapid filtration through microfiltration plates coated with 0.5% polyethylenimine (UniFilter GF/B filter plate; Packard). Bound radioactivity was analyzed for Ki using nonlinear regression analysis (Activity Base, ID Business Solution, Limited), with the Kd values for [^3H]CP55,940 determined from saturation experiments.

[2] = molecular target: human CB1 receptor (CNR1) (Homo sapiens (Human), UniProt P21554); assay: Radioligand binding assay ([3H]-CP-55,940), membranes of HEK cells expressing human CNR1; settings: 1.5 nM [3H]-CP-55,940, HEK cell membranes, 1 h at 30° C.
Sequence of human CB1 receptor (CNR1) (P21554 whole entry): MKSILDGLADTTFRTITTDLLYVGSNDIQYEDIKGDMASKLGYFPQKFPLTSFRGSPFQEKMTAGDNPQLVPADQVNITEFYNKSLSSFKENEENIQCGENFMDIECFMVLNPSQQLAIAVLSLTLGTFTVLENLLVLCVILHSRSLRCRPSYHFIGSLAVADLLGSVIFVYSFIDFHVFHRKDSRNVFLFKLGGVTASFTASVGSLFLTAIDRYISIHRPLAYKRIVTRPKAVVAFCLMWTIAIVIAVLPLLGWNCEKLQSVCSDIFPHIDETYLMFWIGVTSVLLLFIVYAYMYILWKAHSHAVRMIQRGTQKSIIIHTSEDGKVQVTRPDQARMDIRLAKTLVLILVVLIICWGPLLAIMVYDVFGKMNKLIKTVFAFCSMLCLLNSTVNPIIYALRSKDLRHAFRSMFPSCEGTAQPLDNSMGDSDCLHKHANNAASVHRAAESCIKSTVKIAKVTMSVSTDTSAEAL
Procedure: as §1, §2

Sequence of human CB2 receptor (CNR2) (P34972 whole entry): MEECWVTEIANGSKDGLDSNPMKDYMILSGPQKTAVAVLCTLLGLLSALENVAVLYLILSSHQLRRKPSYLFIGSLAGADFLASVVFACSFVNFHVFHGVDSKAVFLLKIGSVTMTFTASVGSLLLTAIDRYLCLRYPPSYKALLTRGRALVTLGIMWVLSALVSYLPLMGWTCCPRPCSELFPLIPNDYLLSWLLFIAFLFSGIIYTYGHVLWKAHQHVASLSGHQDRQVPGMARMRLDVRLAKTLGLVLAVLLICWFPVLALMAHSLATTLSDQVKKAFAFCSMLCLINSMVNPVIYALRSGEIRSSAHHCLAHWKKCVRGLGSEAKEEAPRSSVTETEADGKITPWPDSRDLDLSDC

Row | Molecule | Ki [1] [nM] | Ki [2] [nM]
1 | 5-tert-butyl-7-(3,3-Difluoropyrrolidin-1-yl)-3-[[2-(pyridin-2-yldisulfanyl)phenyl]methyl]triazolo[4,5-d]pyrimidine [Example 37] | 541 | 2580
2 | Cc1nonc1Cn1nnc2c(N3CC[C@H](S)C3)nc(C(C)(C)C)nc21 (single isomer, unassigned) [Example 10] | 153 | > 10000
3 | CC(C)(C)c1nc(N2CC[C@H](S)C2)c2nnn(Cc3ccccc3Cl)c2n1 (single isomer, unassigned) [Example 12] | 2500 | 2810
4 | CC(C)(C)c1nc(N2CC[C@@H](S)C2)c2nnn(Cc3ccccc3Cl)c2n1 (single isomer, unassigned) [Example 13] | 1560 | > 10000
5 | CC(C)(C)c1nc(N2CC[C@H](O)C2)c2nnn(Cc3ccccc3S(=O)(=O)F)c2n1 [Example 1, 2-[[5-tert-Butyl-7-[(3S)-3-hydroxypyrrolidin-1-yl]triazolo[4,5-d]pyrimidin-3-yl]methyl]benzenesulfonyl fluoride] | 16 | > 10000
6 | CC(C)(C)c1nc(N2CCC(F)(F)C2)c2nnn(Cc3ccccc3CS(=O)(=O)F)c2n1 [Example 2, (2-{[5-tert-Butyl-7-(3,3-difluoropyrrolidin-1-yl)-3H-[1,2,3]triazolo[4,5-d]pyrimidin-3-yl]methyl}phenyl)methanesulfonyl fluoride] | 11 | 1960
7 | CC(C)(C)c1nc(N2CC[C@H](O)C2)c2nnn(Cc3ccccc3CS(=O)(=O)F)c2n1 [Example 3, [2-({5-tert-Butyl-7-[(3S)-3-hydroxypyrrolidin-1-yl]-3H-[1,2,3]1 triazolo[4,5-d]pyrimidin-3-yl}methyl)phenyl]methanesulfonyl fluoride] | 283 | > 10000
8 | CC(C)(C)c1nc(N2CCC(F)(F)C2)c2nnn(Cc3ccccc3CN=C=S)c2n1 [Example 4, 5-tert-Butyl-7-(3,3-difluoropyrrolidin-1-yl)-3-{[2-(isothiocyanatomethyl)phenyl]methyl}-3H-[1,2,3]triazolo[4,5-d]pyrimidine] | 88 | 3830
9 | CC(C)(C)c1nc(N2CC[C@H](O)C2)c2nnn(Cc3ccccc3CN=C=S)c2n1 [Example 5, (3S)-1-(5-tert-Butyl-3-{[2-(isothiocyanatomethyl)phenyl]methyl}-3H-[1,2,3]triazolo[4,5-d]pyrimidin-7-yl)pyrrolidin-3-ol] | 91 | > 10000
10 | CC(C)(C)c1nc(N2CCC(F)(F)C2)c2nnn(Cc3ccccc3N=C=S)c2n1 [Example 6, 5-tert-Butyl-7-(3,3-difluoropyrrolidin-1-yl)-3-[(2-isothiocyanatophenyl)methyl]-3H-[1,2,3]triazolo[4,5-d]pyrimidine] | 300 | 5360
11 | CC(C)(C)c1nc(N2CCC(F)(F)C2)c2nnn(Cc3ccccc3S(=O)(=O)F)c2n1 [Example 7, 2-{[5-tert-Butyl-7-(3,3-difluoropyrrolidin-1-yl)-3H-[1,2,3]triazolo[4,5-d]pyrimidin-3-yl]methyl}benzene-1-sulfonyl fluoride] | 6 | 931
12 | CC(C)(C)c1nc(N2CCC(S)C2)c2nnn(Cc3ccccc3Cl)c2n1 (stereo not shown) [Example 8, 1-{5-tert-Butyl-3-[(2-chlorophenyl)methyl]-3H-[1,2,3]triazolo[4,5-d]pyrimidin-7-yl}pyrrolidine-3-thiol] | 85 | 1470
13 | CC(C)(C)c1nc(N2CC(S)C2)c2nnn(Cc3ccccc3Cl)c2n1 [Example 9, 1-{5-tert-Butyl-3-[(2-chlorophenyl)methyl]-3H-[1,2,3]triazolo[4,5-d]pyrimidin-7-yl}azetidine-3-thiol] | 383 | > 10000
14 | Cc1nonc1Cn1nnc2c(N3CCC(N=[N+]=[N-])C3)nc(C(C)(C)C)nc21 (stereo not shown) [Example 14, 7-(3-Azidopyrrolidin-1-yl)-5-tert-butyl-3-[(4-methyl-1,2,5-oxadiazol-3-yl)methyl]-3H-[1,2,3]triazolo[4,5-d]pyrimidine] | 137 | > 10000
15 | Cc1nonc1Cn1nnc2c(N3CCC(N=C=S)C3)nc(C(C)(C)C)nc21 (stereo not shown) [Example 16, 5-tert-Butyl-7-(3-isothiocyanatopyrrolidin-1-yl)-3-[(4-methyl-1,2,5-oxadiazol-3-yl)methyl]-3H-[1,2,3]triazolo[4,5-d]pyrimidine] | 426 | > 10000
16 | CC(C)(C)c1nc(N2CCC(N=[N+]=[N-])C2)c2nnn(Cc3ccccc3Cl)c2n1 (stereo not shown) [Example 17, 7-(3-Azidopyrrolidin-1-yl)-5-tert-butyl-3-[(2-chlorophenyl)methyl]-3H-[1,2,3]triazolo[4,5-d]pyrimidine] | 210 | 2290
17 | CSSC1CCN(c2nc(C(F)(F)c3ccccc3)nc3c2nnn3Cc2nonc2C)C1 (stereo not shown) [Example 18, 5-[Difluoro(phenyl)methyl]-7-[3-(methyldisulfanyl)pyrrolidin-1-yl]-3-[(4-methyl-1,2,5-oxadiazol-3-yl)methyl]-3H-[1,2,3]triazolo[4,5-d]pyrimidine] | 1030 | > 10000
18 | CSSC1CCN(c2nc(C(F)(F)c3ccccc3)nc3c2nnn3Cc2ccccc2Cl)C1 (stereo not shown) [Example 19, 3-[(2-Chlorophenyl)methyl]-5-[difluoro(phenyl)methyl]-7-[3-(methyldisulfanyl)pyrrolidin-1-yl]-3H-[1,2,3]triazolo[4,5-d]pyrimidine] | 1370 | > 10000
19 | Cc1nonc1Cn1nnc2c(N3CCC(N=[N+]=[N-])C3)nc(C(F)(F)c3ccccc3)nc21 (stereo not shown) [Example 20, 7-(3-Azidopyrrolidin-1-yl)-5-[difluoro(phenyl)methyl]-3-[(4-methyl-1,2,5-oxadiazol-3-yl)methyl]-3H-[1,2,3]triazolo[4,5-d]pyrimidine] | 1300 | > 10000
20 | [N-]=[N+]=NC1CCN(c2nc(C(F)(F)c3ccccc3)nc3c2nnn3Cc2ccccc2Cl)C1 (stereo not shown) [Example 21, 7-(3-Azidopyrrolidin-1-yl)-3-[(2-chlorophenyl)methyl]-5-[difluoro(phenyl)methyl]-3H-[1,2,3]triazolo[4,5-d]pyrimidine] | 729 | 2450
21 | FC(F)(c1ccccc1)c1nc(N2CCC(N=C=S)C2)c2nnn(Cc3ccccc3Cl)c2n1 (stereo not shown) [Example 22, 3-[(2-Chlorophenyl)methyl]-5-[difluoro(phenyl)methyl]-7-(3-isothiocyanatopyrrolidin-1-yl)-3H-[1,2,3]triazolo[4,5-d]pyrimidine] | 1240 | 6440
22 | Cc1nonc1Cn1nnc2c(N3CCC(N=C=S)C3)nc(C(F)(F)c3ccccc3)nc21 (stereo not shown) [Example 23, 5-[Difluoro(phenyl)methyl]-7-(3-isothiocyanatopyrrolidin-1-yl)-3-[(4-methyl-1,2,5-oxadiazol-3-yl)methyl]-3H-[1,2,3]triazolo[4,5-d]pyrimidine] | 1460 | 1450
23 | O=S(=O)(F)c1ccccc1Cn1nnc2c(N3CC[C@H](O)C3)nc(C(F)(F)c3ccccc3)nc21 [Example 24, 2-[[5-[Difluoro(phenyl)methyl]-7-[(3S)-3-hydroxypyrrolidin-1-yl]triazolo[4,5-d]pyrimidin-3-yl]methyl]benzenesulfonyl fluoride] | 1130 | 3290
24 | CC(C)(C)c1nc(N2CCC(F)(F)C2)c2nnn(Cc3ccccc3CSSCCO)c2n1 [Example 25, 2-[[2-[[5-tert-Butyl-7-(3,3-difluoropyrrolidin-1-yl)triazolo[4,5-d]pyrimidin-3-yl]methyl]phenyl]methyldisulfanyl]ethanol] | 9 | 211
25 | O=S(=O)(F)c1ccccc1Cn1nnc2c(N3CCC(F)(F)C3)nc(C(F)(F)c3ccccc3)nc21 [Example 26, 2-[[5-[Difluoro(phenyl)methyl]-7-(3,3-difluoropyrrolidin-1-yl)triazolo[4,5-d]pyrimidin-3-yl]methyl]benzenesulfonyl fluoride] | 630 | > 10000
26 | FC1(F)CCN(c2nc(C(F)(F)c3ccccc3)nc3c2nnn3Cc2ccccc2CCSSc2ccccn2)C1 [Example 27, 5-[Difluoro(phenyl)methyl]-7-(3,3-difluoropyrrolidin-1-yl)-3-[[2-[2-(pyridin-2-yldisulfanyl)ethyl]phenyl]methyl]triazolo[4,5-d]pyrimidine] | 262 | 3040
27 | OCCSSCCc1ccccc1Cn1nnc2c(N3CCC(F)(F)C3)nc(C(F)(F)c3ccccc3)nc21 [Example 28, 2-[2-[2-[[5-[Difluoro(phenyl)methyl]-7-(3,3-difluoropyrrolidin-1-yl)triazolo[4,5-d]pyrimidin-3-yl]methyl]phenyl]ethyldisulfanyl]ethanol] | 138 | 1080
28 | CC(C)(C)c1nc(N2CCC(F)(F)C2)c2nnn(Cc3ccccc3CCSSCCO)c2n1 [Example 29, 2-[2-[2-[[5-tert-Butyl-7-(3,3-difluoropyrrolidin-1-yl)triazolo[4,5-d]pyrimidin-3-yl]methyl]phenyl]ethyldisulfanyl]ethanol] | 6 | 205
29 | CC(C)(C)c1nc(N2CCC(F)(F)C2)c2nnn(Cc3ccccc3CCS(=O)(=O)n3nnc4ccccc43)c2n1 [Example 30, 3-[[2-[2-(Benzotriazol-1-ylsulfonyl)ethyl]phenyl]methyl]-5-tert-butyl-7-(3,3-difluoropyrrolidin-1-yl)triazolo[4,5-d]pyrimidine] | 246 | > 10000
